# Measurements taken from ChEMBL document CHEMBL3739397, “Identification of an indoletriazoleamino acid conjugate as a highly effective antifungal agent” (2015).
# Active and inactive are the calls of the source. No cut-off for these calls is given here.
# Columns and labels:
# Candida albicans [1] = test: Antifungal activity against Candida albicans BWP17 at 1/10th of MIC80 for 3 days by spot assay; type: functional, organism-based
# Candida albicans [2] = test: Antifungal activity against Candida albicans BWP17 assessed as necrotic cells at […] incubated for overnight by PI staining based microscopic analysis; type: functional, organism-based
# Candida albicans [3] = test: Antifungal activity against Candida albicans BWP17 assessed as cell wall damage measured as cell clumping at MIC80 by confocal microscopic analysis; type: functional, organism-based
# Candida albicans [4] = test: Antifungal activity against Candida albicans BWP17 at MIC80 for 3 days by spot assay; type: functional, organism-based
# Candida albicans [5] = test: Antifungal activity against Candida albicans BWP17 at MIC80 after 3 days by spot assay in presence of terbinafine; type: functional, organism-based
# Candida albicans [6] = test: Antifungal activity against Candida albicans BWP17 at 1/10th of MIC80 for 3 days by spot assay in presence of ketoconazole; type: functional, organism-based
# Candida albicans [7] = test: Antifungal activity against Candida albicans BWP17 assessed as increase in chitin level at 1/10th of MIC80 by spot assay in presence of CFW; type: functional, organism-based
# Candida albicans [8] = test: Antifungal activity against Candida albicans BWP17 assessed as increase in chitin level at MIC80 by CFW staining based microscopic analysis in presence of ketoconazole; type: functional, organism-based
# Candida albicans [9] = test: Antifungal activity against Candida albicans BWP17 at 0.3 mg/ml after 48 hrs by broth dilution method; type: functional; conditions: BWP17, BWP17, 48 h
# Candida albicans [10] = test: Antifungal activity against Candida albicans BWP17 at MIC80 for 3 days by spot assay in presence of ketoconazole; type: functional, organism-based
# Candida albicans [11] = test: Antifungal activity against Candida albicans BWP17 assessed as zone of inhibition at 2 mg/ml for 48 hrs by disk diffusion method (reference value: 0.6 cm); type: functional
# Candida albicans [12] = test: Antifungal activity against Candida albicans BWP17 at MIC80 after 2 days by spot assay in presence of terbinafine; type: functional, organism-based
# Candida albicans [13] = test: Antifungal activity against Candida albicans BWP17 assessed as cell shrinkage and deposition of cellular content on cell surface at < MIC80 by scanning electron microscopic analysis; type: functional, organism-based
# Candida albicans [14] = test: Antifungal activity against Candida albicans BWP17 at 0.6 mg/ml after 48 hrs by broth dilution method; type: functional; conditions: BWP17, BWP17, 48 h
# Candida albicans [15] = test: Antifungal activity against Candida albicans BWP17 assessed as cell shrinkage and deposition of cellular content on cell surface at 312.5 ug/ml by scanning electron microscopic analysis; type: functional, organism-based
# Candida albicans [16] = test: Antifungal activity against Candida albicans BWP17 assessed as cell shrinkage and deposition of cellular content on cell surface at 312.5 ug/ml by scanning electron microscopic analysis in presence of ketocanozole; type: functional, organism-based
# Candida albicans [17] = test: Antifungal activity against Candida albicans BWP17 at 0.04 mg/ml after 48 hrs by broth dilution method; type: functional; conditions: BWP17, BWP17, 48 h
# Candida albicans [18] = test: Antifungal activity against Candida albicans BWP17 assessed as mild growth inhibition at 400 ug/ml after 24 hrs by spot assay; type: functional, organism-based
# Candida albicans [19] = test: Antifungal activity against Candida albicans BWP17 assessed as zone of inhibition at 1 mg/ml for 48 hrs by disk diffusion method (reference value: 0.6 cm); type: functional
# Candida albicans [20] = test: Antifungal activity against Candida albicans BWP17 assessed as zone of inhibition at 0.5 mg/ml for 48 hrs by disk diffusion method (reference value: 0.6 cm); type: functional
# Candida albicans [21] = test: Antifungal activity against Candida albicans BWP17 at 1.25 mg/ml after 48 hrs by broth dilution method; type: functional; conditions: BWP17, BWP17, 48 h
# Candida albicans [22] = test: Antifungal activity against Candida albicans BWP17 after 48 hrs by broth dilution method; type: functional; conditions: BWP17, 48 h
# Candida albicans [23] = test: Antifungal activity against Candida albicans BWP17 at > MIC80 compound added to secondary culture for 3 days by spot assay; type: functional, organism-based
# Candida albicans [24] = test: Antifungal activity against Candida albicans BWP17 at 0.08 mg/ml after 48 hrs by broth dilution method; type: functional; conditions: BWP17, BWP17, 48 h
# Candida albicans [25] = test: Antifungal activity against Candida albicans BWP17 assessed as increase in chitin level at MIC80 by CFW staining based microscopic analysis; type: functional, organism-based
# Candida albicans [26] = test: Antifungal activity against Candida albicans BWP17 assessed as necrotic cells incubated for overnight by PI staining based microscopic analysis; type: functional, organism-based
# Candida albicans [27] = test: Antifungal activity against Candida albicans BWP17 assessed as cell wall damage measured as cell clumping at MIC80 by confocal microscopic analysis in presence of ketoconazole; type: functional, organism-based
# Candida albicans [28] = test: Antifungal activity against Candida albicans BWP17 at 400 ug/ml after 48 hrs by spot assay; type: functional, organism-based
# Candida albicans [29] = test: Antifungal activity against Candida albicans BWP17 at 0.16 mg/ml after 48 hrs by broth dilution method; type: functional; conditions: BWP17, BWP17, 48 h
# Candida albicans [30] = test: Antifungal activity against Candida albicans BWP17 at 62.5 ug/ml for 3 days by spot assay in presence of terbinafine; type: functional, organism-based
# Candida albicans [31] = test: Antifungal activity against Candida albicans BWP17 assessed as necrotic cells at 312.5 ug/ml incubated for overnight by PI staining based microscopic analysis in presence of ketoconazole; type: functional, organism-based
compound,measurement,setting,value
CC(=O)N1CCN(c2ccc(OCC3COC(Cn4ccnc4)(c4ccc(Cl)cc4Cl)O3)cc2)CC1 (stereo not given),Activity,Candida albicans [1],Active
same,Activity,Candida albicans [2],Active
same,Activity,Candida albicans [3],Active
same,Activity,Candida albicans [4],Active
CN(C/C=C/C#CC(C)(C)C)Cc1cccc2ccccc12,Activity,Candida albicans [4],Active
O=C(O)CC[C@H](NC(=O)C(=O)c1cn(Cc2cn(-c3ccccc3)nn2)c2ccccc12)C(=O)O,Activity,Candida albicans [1],Active
same,Activity,Candida albicans [5],Active
same,Activity,Candida albicans [6],Active
same,Activity,Candida albicans [7],Active
same,Activity,Candida albicans [8],Active
same,inhibition at 300 µg/mL,Candida albicans [9],81%
same,Activity,Candida albicans [10],Active
same,Activity,Candida albicans [11],2.5 cm
same,Activity,Candida albicans [12],Active
same,Activity,Candida albicans [13],Active
same,inhibition at 600 µg/mL,Candida albicans [14],84%
same,Activity,Candida albicans [15],Active
same,Activity,Candida albicans [16],Active
same,inhibition at 40 µg/mL,Candida albicans [17],6%
same,Activity,Candida albicans [18],Active
same,Activity,Candida albicans [19],1.2 cm
same,Activity,Candida albicans [20],0.8 cm
same,inhibition at 1250 µg/mL,Candida albicans [21],84%
same,MIC80,Candida albicans [22],312 µg/mL
same,Activity,Candida albicans [3],Active
same,Activity,Candida albicans [23],Active
same,inhibition at 80 µg/mL,Candida albicans [24],18%
same,Activity,Candida albicans [25],Active
same,Activity,Candida albicans [26],Active
same,Activity,Candida albicans [27],Active
same,Activity,Candida albicans [28],inactive
same,inhibition at 160 µg/mL,Candida albicans [29],33%
same,Activity,Candida albicans [30],inactive
same,Activity,Candida albicans [31],Active
same,Activity,Candida albicans [4],Active
